Measurements taken from patent US12668600B2 (Kumquat Biosciences Inc., priority 2023, dated 2026).

How the values were obtained:
Format in all cases: biochemical
[1] = molecular target: T1, KRAS G12D (Homo sapiens, UniProt P01116, G12D); assay: HTRF KRAS-SOS1 interaction assay, KRAS G12D; details: binned ≤2 μM / >2 μM, read-out: Inhibition of KRAS G12D (IC50)
T1 construct: made in house; host or cells: E. coli, e.g. BL21 (DE3)
Method in brief: (§1)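 GST-tagged KRAS (WT or mutant) with anti-GST-Eu donor, mixed with His-hSOS1 and anti-6His-XL665 acceptor. Buffer ~5 mM HEPES pH 7.4, ~150 mM NaCl, ~1 mM DTT, 0.05% BSA, 0.0025% Igepal; incubated about 10 min or longer. HTRF 665/620 ratio, compounds in duplicate up to 10 μM, IC50 derived.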

[2] = molecular target: T2, KRAS G12V (Homo sapiens, UniProt P01116, G12V); assay: HTRF KRAS-SOS1 interaction assay, KRAS G12V; details: binned ≤2 μM / >2 μM, read-out: Inhibition of KRAS G12V (IC50)
T2 construct: made in house; host or cells: E. coli, e.g. BL21 (DE3)
Method in brief: as §1

[3] = molecular target: T3, KRAS G12S (Homo sapiens, UniProt P01116, G12S); assay: HTRF KRAS-SOS1 interaction assay, KRAS G12S; details: binned ≤2 μM / >2 μM, read-out: Inhibition of KRAS G12S (IC50)
T3 construct: made in house; host or cells: E. coli, e.g. BL21 (DE3)
Method in brief: as §1

[4] = molecular target: T4, KRAS WT (Homo sapiens, UniProt P01116); assay: HTRF KRAS-SOS1 interaction assay, wildtype KRAS; details: binned ≤2 μM / >2 μM, read-out: Inhibition of KRAS WT (IC50)
T4 construct: made in house; host or cells: E. coli, e.g. BL21 (DE3)
Method in brief: as §1

Measured: IC50

T2 sequence (P01116 1-188 isoform P01116-2 G12V): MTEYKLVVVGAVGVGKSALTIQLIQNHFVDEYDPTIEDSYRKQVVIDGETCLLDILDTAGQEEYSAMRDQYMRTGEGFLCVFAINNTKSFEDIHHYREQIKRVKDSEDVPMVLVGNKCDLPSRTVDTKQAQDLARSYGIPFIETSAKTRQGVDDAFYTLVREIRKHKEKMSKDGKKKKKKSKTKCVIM
T3 sequence (P01116 1-188 isoform P01116-2 G12S): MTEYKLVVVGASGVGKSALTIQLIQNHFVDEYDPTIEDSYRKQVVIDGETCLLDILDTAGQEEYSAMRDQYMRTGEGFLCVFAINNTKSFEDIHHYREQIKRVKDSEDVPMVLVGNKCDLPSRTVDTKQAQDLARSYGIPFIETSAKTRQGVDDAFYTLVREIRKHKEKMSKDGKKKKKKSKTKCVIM
T4 sequence (P01116 1-188 isoform P01116-2): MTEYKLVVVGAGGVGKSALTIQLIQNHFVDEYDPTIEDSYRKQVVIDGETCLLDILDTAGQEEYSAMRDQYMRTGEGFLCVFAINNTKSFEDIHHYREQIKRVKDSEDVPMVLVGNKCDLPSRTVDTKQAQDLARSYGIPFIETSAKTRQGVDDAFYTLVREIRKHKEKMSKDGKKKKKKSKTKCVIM
T1 sequence (P01116 1-188 isoform P01116-2 G12D): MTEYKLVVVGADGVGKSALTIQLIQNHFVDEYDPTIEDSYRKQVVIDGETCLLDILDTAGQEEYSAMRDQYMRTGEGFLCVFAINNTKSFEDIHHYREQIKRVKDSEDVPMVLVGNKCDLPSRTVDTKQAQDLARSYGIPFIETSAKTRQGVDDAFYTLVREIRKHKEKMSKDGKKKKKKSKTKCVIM

CC[C@H](c1cc(F)cnc1N)N1CCOc2c(C(F)(F)F)c(-c3ccc(F)c4sc(N)c(C#N)c34)c(F)c3nc(OC[C@@]45CCCN4C[C@H](F)C5)nc1c23 [Compound 870, 2-amino-4-(4-((R)-1-(2-amino-5-fluoropyridin-3-yl)propyl)-10-fluoro-2-(((2R,7aS)-2-fluorotetrahydro-1H-pyrrolizin-7a(5H)-yl)methoxy)-8-(trifluoromethyl)-5,6-dihydro-4H-[1,4]oxazepino[5,6,7-de]quinazolin-9-yl)-7-fluorobenzo[b]thiophene-3-carbonitrile]
≤ 2000 nM: all assays above

C[C@H](c1cc(C#N)cnc1N)N1CCOc2c(Cl)c(-c3ccc(F)c4sc(N)c(C#N)c34)c(F)c3nc(OC[C@@]45CCCN4C[C@H](F)C5)nc1c23 [Compound 873, 6-amino-5-((1R)-1-(9-(2-amino-3-cyano-7-fluorobenzo[b]thiophen-4-yl)-8-chloro-10-fluoro-2-(((2R,7aS)-2-fluorotetrahydro-1H-pyrrolizin-7a(5H)-yl)methoxy)-5,6-dihydro-4H-[1,4]oxazepino[5,6,7-de]quinazolin-4-yl)ethyl)nicotinonitrile]
≤ 2000 nM: all assays above

N#Cc1c(N)sc2c(F)ccc(-c3c(C(F)(F)F)c4c5c(nc(OC[C@@]67CCCN6C[C@H](F)C7)nc5c3F)N([C@H](CCC(F)(F)F)c3cc(Cl)cnc3N)CCO4)c12 [Compound 874, 2-amino-4-(4-((R)-1-(2-amino-5-chloropyridin-3-yl)-4,4,4-trifluorobutyl)-10-fluoro-2-(((2R,7aS)-2-fluorotetrahydro-1H-pyrrolizin-7a(5H)-yl)methoxy)-8-(trifluoromethyl)-5,6-dihydro-4H-[1,4]oxazepino[5,6,7-de]quinazolin-9-yl)-7-fluorobenzo[b]thiophene-3-carbonitrile]
≤ 2000 nM: all assays above

C[C@H](c1nccnc1N)N1CCOc2c(C(F)(F)F)c(-c3ccc(F)c4sc(N)c(C#N)c34)c(F)c3nc(OC[C@@]45CCCN4CC(=C(F)F)C5)nc1c23 [Compound 876, 2-amino-4-(4-((R)-1-(3-aminopyrazin-2-yl)ethyl)-2-(((S)-2-(difluoromethylene)tetrahydro-1H-pyrrolizin-7a(5H)-yl)methoxy)-10-fluoro-8-(trifluoromethyl)-5,6-dihydro-4H-[1,4]oxazepino[5,6,7-de]quinazolin-9-yl)-7-fluorobenzo[b]thiophene-3-carbonitrile]
≤ 2000 nM: all assays above

C[C@H](c1cc(F)cnc1N)N1CCOc2c(C(F)(F)F)c(-c3ccc(F)c4sc(N)c(C#N)c34)c(F)c3nc(OC[C@@]45CCCN4C[C@@]4(CC4(F)F)C5)nc1c23 [Compound 878, 2-amino-4-(4-((R)-1-(2-amino-5-fluoropyridin-3-yl)ethyl)-2-(((1S,7a′S)-2,2-difluorodihydro-1′H,3′H-spiro[cyclopropane-1,2′-pyrrolizin]-7a′(5′H)-yl)methoxy)-10-fluoro-8-(trifluoromethyl)-5,6-dihydro-4H-[1,4]oxazepino[5,6,7-de]quinazolin-9-yl)-7-fluorobenzo[b]thiophene-3-carbonitrile]
≤ 2000 nM: all assays above

N#Cc1c(N)sc2c(F)ccc(-c3c(C(F)(F)F)c4c5c(nc(OC[C@@]67CCCN6C[C@@]6(CC6(F)F)C7)nc5c3F)N([C@H](CCC(F)(F)F)c3cccnc3N)CCO4)c12 [Compound 883, 2-amino-4-(4-((R)-1-(2-aminopyridin-3-yl)-4,4,4-trifluorobutyl)-2-(((1S,7a′S)-2,2-difluorodihydro-1′H,3′H-spiro[cyclopropane-1,2′-pyrrolizin]-7a′(5′H)-yl)methoxy)-10-fluoro-8-(trifluoromethyl)-5,6-dihydro-4H-[1,4]oxazepino[5,6,7-de]quinazolin-9-yl)-7-fluorobenzo[b]thiophene-3-carbonitrile]
≤ 2000 nM: all assays above

C[C@H](Oc1nc2c3c(c(C(F)(F)F)c(-c4ccc(F)c5sc(N)c(C#N)c45)c(F)c3n1)OCCN2[C@H](C)c1cccnc1N)[C@@H]1C[C@@H](F)CN1C [Compound 890, 2-amino-4-(4-((R)-1-(2-aminopyridin-3-yl)ethyl)-10-fluoro-2-((S)-1-((2S,4R)-4-fluoro-1-methylpyrrolidin-2-yl)ethoxy)-8-(trifluoromethyl)-5,6-dihydro-4H-[1,4]oxazepino[5,6,7-de]quinazolin-9-yl)-7-fluorobenzo[b]thiophene-3-carbonitrile]
≤ 2000 nM: all assays above

CCN1CC[C@H](OC)[C@H]1[C@H](C)Oc1nc2c3c(c(C(F)(F)F)c(-c4ccc(F)c5sc(N)c(C#N)c45)c(F)c3n1)OCCN2[C@H](C)c1cccnc1N [Compound 896, 2-amino-4-(4-((R)-1-(2-aminopyridin-3-yl)ethyl)-2-((S)-1-((2R,3S)-1-ethyl-3-methoxypyrrolidin-2-yl)ethoxy)-10-fluoro-8-(trifluoromethyl)-5,6-dihydro-4H-[1,4]oxazepino[5,6,7-de]quinazolin-9-yl)-7-fluorobenzo[b]thiophene-3-carbonitrile]
≤ 2000 nM: all assays above

C#C[C@H](c1cccnc1N)N1CCOc2c(Cl)c(-c3ccc(F)c4sc(N)c(C#N)c34)c(F)c3nc(OC[C@@]45CCCN4C[C@H](F)C5)nc1c23 [Compound 904, 2-amino-4-(4-((R)-1-(2-aminopyridin-3-yl)prop-2-yn-1-yl)-8-chloro-10-fluoro-2-(((2R,7aS)-2-fluorotetrahydro-1H-pyrrolizin-7a(5H)-yl)methoxy)-5,6-dihydro-4H-[1,4]oxazepino[5,6,7-de]quinazolin-9-yl)-7-fluorobenzo[b]thiophene-3-carbonitrile]
≤ 2000 nM: all assays above

N#Cc1c(N)sc2c(F)ccc(-c3c(C(F)(F)F)c4c5c(nc(OCC6(CN7CCC(=CF)CC7)CC6)nc5c3F)N([C@H](CCC3CCOCC3)c3cccnc3N)CCO4)c12 [Compound 905, 2-amino-4-(4-((R)-1-(2-aminopyridin-3-yl)-3-(tetrahydro-2H-pyran-4-yl)propyl)-10-fluoro-2-((1-((4-(fluoromethylene)piperidin-1-yl)methyl)cyclopropyl)methoxy)-8-(trifluoromethyl)-5,6-dihydro-4H-[1,4]oxazepino[5,6,7-de]quinazolin-9-yl)-7-fluorobenzo[b]thiophene-3-carbonitrile]
≤ 2000 nM: all assays above
